In PMC7415757, “Monocrotaline-induced liver toxicity in rat predicted by a combined in vitro physiologically based kinetic modeling approach” (Archives of Toxicology, 2020):
Where two headings read alike, the source gives them in different places.

Key:
[1] = system: human liver cell line HepaRG; settings: in vitro γH2AX induction potency, ref Louisse et al. ([2019]); cited from earlier work
[2] = Substrate depletion in incubations with pooled rat liver microsomes; type: in vitro ADME, rat (Sprague–Dawley); settings: liver microsomes versus intestinal microsomes
Method: After 5 min of pre-incubation in a shaking water bath at 37 °C, the reactions were started by the addition of 1 mM NADPH. The reactions were carried out for 1 h and 2 h for liver and intestinal microsomes, respectively. For each incubation, a corresponding control incubated in the absence of NADPH was included by adding buffer instead of NADPH. To stop the metabolic conversion, 100 µl of ice-cold methanol was added and the sample was put on ice, then centrifuged at 5000 × g for 20 min at 4 °C using a microcentrifuge (CT15RE, VWR, Leuven, Belgium). Supernatants were diluted 200 times in 90% (v/v) acetonitrile and transferred to LC–MS vials. LC–MS analysis was performed using a Shimadzu Nexera XR LC-20AD SR UPLC system in tandem with a Shimadzu LCMS-8040 mass spectrometer (Shimadzu, Kyoto, Japan). From each incubation, 1 µl of supernatant was loaded onto a Luna Omega polar C18 100A LC column (1.6 µm 100 × 2.1 mm, Phenomenex) fitted with a FP polar precolumn (Phenomenex), using a flow rate of 0.3 ml/min. The temperature was set at 40 °C and 5 °C for column and sample, respectively. The mobile phase consisted of ultrapure water (solvent A) and acetonitrile (solvent B) both containing 0.1% (v/v) formic acid. The gradient began with 100% solvent A (0% B) for 1 min to wash away unwanted salts, followed by a linear gradient from 0 to 5% B till 8 min and a further increase to 100% B in 2 min, keeping the elution at 100% B for 0.5 min, then the column was set back to the starting conditions and equlibrated for 3.4 min before the next injection. […] For all incubations, three independent replicates were performed.
The ratio of Vmax and Km was calculated as the in vitro catalytic efficiency (kcat) expressed in […]. […] The rat liver weight of 8.5 g and small intestine weight of 3.5 g (see Table 1) (Brown et al. [1997]) were used to scaled the in vivo kcat values to values expressed in ml/min/tissue.

[3] = ref Chen et al. [2018], cited from earlier work
primary rat hepatocytes [4] = experiment: WST-1 cytotoxicity assay with primary rat hepatocytes; type: cell-based, rat (Sprague–Dawley); settings: primary rat hepatocytes
Method: The monocrotaline-induced liver toxicity was tested in vitro using the WST-1 assay which measures the formazan formation by the metabolically active cells from WST-1. Pooled cryopreserved plateable male rat (Sprague–Dawley) hepatocytes (RTCP10™) were thawed and seeded in accordance with the manufacturer’s protocol. Briefly, cells were seeded in 96-well plates (Greiner bio-one, Alphen aan den Rijn, The Netherlands) at a concentration of 5 × 10^5 cells/ml to give 1.25 × 10^4 cells/well and incubated at 37 °C, 5% CO2 in a humidified atmosphere for 6 h to allow cell adherence. […] The solvent DMSO (0.5% (v/v) final concentration in exposure medium) was used as a negative control and triton X (final concentration 1% (v/v) in exposure medium) served as a positive control in all cytotoxicity assays. After exposure for 24 h, 5 μl (1:20 dilution) WST-1 reagent was added to each well and plates were incubated for an additional 1 h. Then, the plate was shaken at 1000 rpm for 1 min, and absorbance was measured at 440 nm (background absorbance at 620 nm was subtracted) using a SpectraMax M2 (Molecular Devices, Sunnyvale, USA).
Data are presented as mean values ± SE from three independent experiments with three different batches of rat hepatocytes. The cell viability was expressed as percentage of the solvent control, with the solvent control set at 100%. The obtained concentration–response curves for hepatotoxicity were fitted with a symmetrical sigmoidal model (Hill slope) which was further used to derive IC50 values using log [inhibitor] vs. normalized response using GraphPad Prism software (version 5.00 for Windows, GraphPad software, San Diego, USA).

[5] = ref Chen et al. [2018], cited from earlier work; remark: listed apart in the source
[6] = ref Chen et al. [2018]; cited from earlier work
primary rat hepatocytes [7] = settings: same model system; ref Chen et al. [2018]; read-out: EC50 cell viability; cited from earlier work
[8] = ref Chen et al. [2018]; cited from earlier work; remark: listed apart in the source
[9] = ref Merz and Schrenk ([2016]); cited from earlier work

Which results are given for `C=C1C/C(=C/C)C(=O)O[C@@H]2CCN3CC=C(COC(=O)[C@@]1(O)CO)[C@H]23` [Riddelliine]?
pRPF (provisional relative potency factor) [1]: 1; potency group [1]: group 1; in vivo scaled kcat (ml/min tissue) liver relative to intestine [2]: 253 times; Scaled kcat ([3]; liver weight 8.5 g): 8.2 ml/min/ tissue; Km ([3]; liver): 75.7 µM; Scaled Vmax ([3]; liver): 73.5 nmol/min/g tissue; Scaled kcat ([3]; liver): 0.97 ml/min/g tissue; Vmax ([3]; liver): 2.1 nmol/min/mg microsomal protein; times more toxic than monocrotaline in vitro (primary rat hepatocytes [4]): 20.7; Km ([5]; intestine): 221 µM; Scaled Vmax ([5]; intestine): 2.06 nmol/min/g tissue; Scaled kcat ([5]; intestine): 0.009 ml/min/g tissue; Vmax ([5]; intestine): 0.1 nmol/min/mg microsomal protein; Scaled kcat ([5]; small intestine weight 3.5 g): 0.03 ml/min/ tissue; Ka derived from Eq. 5 [6]: 1.17 h⁻¹; EC50 (primary rat hepatocytes [7]): 6.3 µM; Tissue/blood partition coefficient, fat (PF) [8]: 0.44; Tissue/blood partition coefficient, liver (PL) [8]: 0.77; Tissue/blood partition coefficient, richly perfused tissue (PR) [8]: 0.77; Tissue/blood partition coefficient, slowly perfused tissue (PS) [8]: 0.43; Tissue/blood partition coefficient, small intestine (PI) [8]: 0.77; pRPF (provisional relative potency factor) [9]: ~1.0

For `C/C=C(/C)C(=O)O[C@H]1CCN2CC=C(COC(=O)[C@@](O)([C@H](C)OC)C(C)(C)O)[C@H]12` [Lasiocarpine], which potency group [1] is on record?
Its potency group is “group 1”.

And the Km ([3]; liver)?
Its Km is 19.5 µM.

What about the “times more toxic than monocrotaline in vitro” value (primary rat hepatocytes [4]) of the same molecule?
The value was 35.7.

What about the Km ([5]; intestine) of the same molecule?
The Km was 23.4 µM.

And the EC50 (primary rat hepatocytes [7])?
The EC50 was 10.9 µM.

What about the “Tissue/blood partition coefficient, fat (PF)” value [8] of the same molecule?
The value was 2.44.

And the “Tissue/blood partition coefficient, liver (PL)” value [8]?
The value was 0.88.

And the “Tissue/blood partition coefficient, richly perfused tissue (PR)” value [8]?
Its value is 0.88.

And the “Tissue/blood partition coefficient, slowly perfused tissue (PS)” value [8]?
Its value is 0.48.

What about the “Tissue/blood partition coefficient, small intestine (PI)” value [8] of the same molecule?
Its value is 0.88.
